Literature values, collected in patent publication US12220423B2, “Compounds, derivatives, and analogs for cancer” (HYGIA PHARMACEUTICALS, LLC, priority 2018, dated 2025).

Tested on: KRAS
Conditions: K-562 cells treated with 750 micromolars of IP6 for 60 min; p<0.05

Question: With `O=P(O)(O)O[C@H]1[C@H](OP(=O)(O)O)[C@@H](OP(=O)(O)O)[C@H](OP(=O)(O)O)[C@@H](OP(=O)(O)O)[C@H]1OP(=O)(O)O` [myo inositol hexaphosphate] as the compound, how does the “down regulation of KRAS and other relevant genes” value read?
Answer: down regulates KRAS and other relevant genes significantly
